Legend:
[1] = test system: Plasmodium vivax liver stage (primary human hepatocyte culture); test: maximum inhibition of schizont net growth area; higher = more active
Experimental: (§1)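 Dose-response of P. vivax liver stages in primary human hepatocytes, with 8 points (10 uM-[…], v1) or 12 points in duplicate (50 uM-280 pM, v2). Read-out is high-content imaging of schizont net growth area, hypnozoite quantity and hepatic nuclei. EC50 and CC20 (20% nuclei loss) were fitted in CDD Vault from the highest-quality independent experiment; toxic-dose bell-shaped points were masked. '>' marks the highest concentration with less than 50% activity, and ND means a non-sigmoidal curve.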

[2] = test system: primary human hepatocytes; test: CC20 hepatic nuclei (20% reduction); higher = less toxic
Experimental: as §1

[3] = test system: Plasmodium vivax liver stage (primary human hepatocyte culture)
Experimental: as §1

[4] = P. vivax isolate: Pv657, hepatocyte lot: BGW, assay mode: Radical Cure, 8-day (treatment from day 5 post-infection)
[5] = P. vivax isolate: IVS16-38, hepatocyte lot: PDC, assay mode: Prophylactic, 6-day
[6] = P. vivax isolate: Pv836, hepatocyte lot: BGW, assay mode: Radical Cure, 8-day (treatment from day 5 post-infection)
[7] = P. vivax isolate: Pv590, hepatocyte lot: UBV, assay mode: Radical Cure, 8-day (treatment from day 5 post-infection)
[8] = P. vivax isolate: Pv668, hepatocyte lot: BGW, assay mode: Radical Cure, 8-day (treatment from day 5 post-infection)
[9] = P. vivax isolate: Pv458, hepatocyte lot: UBV, assay mode: Radical Cure, 8-day (treatment from day 5 post-infection)
[10] = P. vivax isolate: Pv728, hepatocyte lot: BGW, assay mode: Radical Cure, 8-day (treatment from day 5 post-infection)
[11] = P. vivax isolate: Pv395, hepatocyte lot: UBV, assay mode: Prophylactic, 6-day

SMILES: COc1ccc(-c2cnc3ccc(NCc4ccc(S(N)(=O)=O)cc4)nn23)cn1
- maximum inhibition [1, 4]: 79.2%
- CC20 hepatic nuclei [2, 4]: > 50 µM
- EC50 hypnozoite quantity [3, 4]: > 50 µM

SMILES: COc1ccccc1CNC(=O)CCn1c(=O)[nH]c2ccccc2c1=O
- maximum inhibition [1, 5]: 98.3%
- CC20 hepatic nuclei [2, 5]: > 10 µM
- EC50 hypnozoite quantity [3, 5]: > 10 µM
- EC50 schizont net growth area [3, 5]: 0.68 µM

SMILES: Cc1nc(Sc2ncnc3sc4c(c23)CCC4)sc1CC(N)=O
- maximum inhibition [1, 6]: 91%
- CC20 hepatic nuclei [2, 6]: > 50 µM
- EC50 hypnozoite quantity [3, 6]: > 50 µM
- EC50 schizont net growth area [3, 6]: 2.86 µM

SMILES: Cc1sc2ncnc(Sc3nc4ccccc4[nH]3)c2c1C
- maximum inhibition [1, 7]: 92.9%
- CC20 hepatic nuclei [2, 7]: 46.9 µM
- EC50 hypnozoite quantity [3, 7]: > 50 µM
- EC50 schizont net growth area [3, 7]: 1.62 µM

SMILES: N#CC(C#N)=NNc1cc(Cl)cc(Cl)c1
- maximum inhibition [1, 8]: 85.1%
- CC20 hepatic nuclei [2, 8]: 5.21 µM
- EC50 hypnozoite quantity [3, 8]: > 50 µM
- EC50 schizont net growth area [3, 8]: 4.04 µM

SMILES: O=S1(=O)C=CC2ON=C(c3ccc(Cl)cc3)C21 (centres undefined)
- maximum inhibition [1, 8]: 103%
- CC20 hepatic nuclei [2, 8]: 37.6 µM
- EC50 hypnozoite quantity [3, 8]: > 50 µM
- EC50 schizont net growth area [3, 8]: > 1.85 µM

SMILES: O=S1(=O)C=CC2ON=C(c3c(Cl)cccc3Cl)C21 (centres undefined)
- maximum inhibition [1, 8]: 94.8%
- CC20 hepatic nuclei [2, 8]: 45.7 µM
- EC50 hypnozoite quantity [3, 8]: > 50 µM

SMILES: O=c1c(Cl)c(Cl)cnn1-c1nc2ccccc2[nH]1
- maximum inhibition [1, 9]: 89.7%
- CC20 hepatic nuclei [2, 9]: > 3.33 µM
- EC50 hypnozoite quantity [3, 9]: > 3.33 µM

SMILES: Cn1c(Sc2ncnc3sccc23)nc2ccccc21
- maximum inhibition [1, 6]: 97%
- CC20 hepatic nuclei [2, 6]: 39.4 µM
- EC50 hypnozoite quantity [3, 6]: > 50 µM
- EC50 schizont net growth area [3, 6]: > 16.7 µM

SMILES: O=C(Nc1cccnn1)N1CCC(=Cc2cccc(Oc3ccc(C(F)(F)F)cn3)c2)CC1
- maximum inhibition [1, 10]: 99%
- CC20 hepatic nuclei [2, 10]: > 10 µM
- EC50 hypnozoite quantity [3, 10]: > 10 µM
- EC50 schizont net growth area [3, 10]: 1.23 µM

SMILES: O=C(NCCN1CCCC1)c1cc(NCCCCN2CCC(F)(F)CC2)nc2ccc(Cl)cc12
- maximum inhibition [1, 4]: 103%
- CC20 hepatic nuclei [2, 4]: > 50 µM
- EC50 hypnozoite quantity [3, 4]: > 50 µM
- EC50 schizont net growth area [3, 4]: 0.00316 µM

SMILES: O=C(Nc1nc(-c2ccccn2)cs1)C1CC1c1ccccc1F (centres undefined)
- maximum inhibition [1, 11]: 94.3%
- CC20 hepatic nuclei [2, 11]: > 10 µM
- EC50 hypnozoite quantity [3, 11]: > 10 µM
